Tests used:
15-LOX-2 = biological target: T1, 15-LOX-2 (Homo sapiens, UniProt O15296); assay: Sandwich ELISA of Labelox B biotinylation in A549 cell lysate, 15-LOX-2 capture; assay type: biochemical; conditions: HRP-streptavidin detection, read-out: EC50 of labeling
T1 construct: endogenous in cells; host or cells: A549 cell lysate
T1 sequence (O15296 1-676): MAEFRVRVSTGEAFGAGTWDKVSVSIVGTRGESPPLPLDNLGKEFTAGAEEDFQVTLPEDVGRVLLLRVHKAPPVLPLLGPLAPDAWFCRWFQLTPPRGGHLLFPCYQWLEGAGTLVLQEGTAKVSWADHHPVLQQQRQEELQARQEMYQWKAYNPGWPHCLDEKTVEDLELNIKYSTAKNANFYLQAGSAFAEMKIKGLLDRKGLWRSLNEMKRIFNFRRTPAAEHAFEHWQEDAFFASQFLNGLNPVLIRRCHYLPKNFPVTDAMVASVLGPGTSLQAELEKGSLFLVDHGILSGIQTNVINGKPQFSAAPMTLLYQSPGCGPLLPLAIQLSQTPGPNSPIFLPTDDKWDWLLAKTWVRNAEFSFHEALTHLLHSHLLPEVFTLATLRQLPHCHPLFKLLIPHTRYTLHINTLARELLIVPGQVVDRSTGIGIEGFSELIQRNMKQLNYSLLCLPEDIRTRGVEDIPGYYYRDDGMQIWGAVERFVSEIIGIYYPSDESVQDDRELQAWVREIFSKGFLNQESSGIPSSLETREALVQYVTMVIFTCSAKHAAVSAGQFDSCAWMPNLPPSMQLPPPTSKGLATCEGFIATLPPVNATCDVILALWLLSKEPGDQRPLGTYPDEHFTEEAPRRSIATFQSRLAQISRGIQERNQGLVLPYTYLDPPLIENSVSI
Method: (§1) Labelox B efficiently labels endogenous LOXs. Lipoxygenase labeling by Labelox B was investigated using cell‐based assays. As a first step, labeling efficiency was estimated in intact RAW 264.7 macrophage cells that were treated with Labelox B in concentrations ranging between 1 μM and 100 μM with incubation times between 0.5 h and 6 h. […] As a next step, a sandwich ELISA assay was established in order to find proof that probe Labelox B is indeed labeling proteins with lipoxygenase enzyme activity. Towards this aim, A549 cell lysates were treated with sub‐micromolar to micromolar concentrations of Labelox B. Subsequently, the endogenous LOXs were captured on an anti‐LOX antibody precoated 96‐well plate followed by detection of Labelox B mediated biotinylation using HRP‐conjugated streptavidin. […] Furthermore, probe Labelox B enabled visualization of localized LOX activity in living cells (Figure 2 c). […] The fluorescence intensity increased with increasing doses of Labelox B and labeling was observed throughout the cells in the cytoplasm and the nucleus of A549.
(§2) Figure 2 Labelox B labels endogenous LOXs in a dose‐ and time‐dependent manner. a, b) Western blot analysis of Labelox B labeled LOXs in intact RAW 264.7 for indicated doses and time points. […] The pictures were captured by a Leica DM4000b fluorescence microscope.

12-LOX = biological target: T2, 12-LOX (Homo sapiens, UniProt P18054); assay: Sandwich ELISA of Labelox B biotinylation in A549 cell lysate, 12-LOX capture; assay type: biochemical; conditions: HRP-streptavidin detection, read-out: EC50 of labeling
T2 construct: the endogenous LOXs were captured on an anti‐LOX antibody precoated 96‐well plate; endogenous in cells; host or cells: A549 cell lysate
T2 sequence (P18054 1-663): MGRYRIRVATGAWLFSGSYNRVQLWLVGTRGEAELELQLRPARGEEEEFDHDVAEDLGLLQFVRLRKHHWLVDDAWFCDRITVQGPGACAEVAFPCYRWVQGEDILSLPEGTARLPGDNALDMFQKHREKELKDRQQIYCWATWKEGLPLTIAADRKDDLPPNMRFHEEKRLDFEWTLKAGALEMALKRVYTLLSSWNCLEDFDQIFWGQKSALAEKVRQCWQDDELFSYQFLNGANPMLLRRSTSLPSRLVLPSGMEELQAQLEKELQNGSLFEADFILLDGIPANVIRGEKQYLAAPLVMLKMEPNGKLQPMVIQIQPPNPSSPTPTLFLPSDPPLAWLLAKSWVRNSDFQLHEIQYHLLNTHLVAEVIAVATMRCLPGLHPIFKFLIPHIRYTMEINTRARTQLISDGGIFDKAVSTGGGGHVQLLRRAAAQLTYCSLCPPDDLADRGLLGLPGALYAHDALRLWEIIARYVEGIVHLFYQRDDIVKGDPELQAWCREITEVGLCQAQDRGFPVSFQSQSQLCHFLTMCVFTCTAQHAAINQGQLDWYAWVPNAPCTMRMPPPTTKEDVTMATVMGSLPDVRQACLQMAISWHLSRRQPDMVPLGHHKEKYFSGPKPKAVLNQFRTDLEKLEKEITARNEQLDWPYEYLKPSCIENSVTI
Method: as §1, §2

EC50 (15-LOX-2): ~3.5 µM
EC50 (12-LOX): ~3.5 µM
Structure (SMILES): CCCCCC#CCC#CCOC(=O)CCCC[C@@H]1SC[C@@H]2NC(=O)N[C@@H]21 [Labelox B (3)]
